Data: patent publication US7321027B2, “Small technetium-99m and rhenium labeled agents and methods for imaging tumors” (President and Fellows of Harvard College, priority 2000, dated 2008)

Key:
[1] = test system: melanoma; settings: 1 hour post injection; cited from earlier work
[2] = target: T1, σ2-receptors (Rattus norvegicus, UniProt Q5U3Y7); assay: σ2-Receptor binding assay; settings: σ2 vs σ1
T1 construct: Rat liver membranes were prepared from male Sprague-Dawley rat livers as previously described; from tissue; host or cells: male Sprague-Dawley rat liver membranes
T1 sequence (Q5U3Y7 1-176): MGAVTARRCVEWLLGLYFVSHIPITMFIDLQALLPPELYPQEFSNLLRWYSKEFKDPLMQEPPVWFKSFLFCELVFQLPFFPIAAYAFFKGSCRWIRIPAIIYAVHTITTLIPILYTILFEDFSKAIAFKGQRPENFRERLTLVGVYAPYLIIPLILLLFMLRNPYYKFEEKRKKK
Procedure: Receptor Binding Studies. To understand the involvement of receptor binding in the melanoma-cell uptake of these ^99mTc-complexes, we further investigated the affinity of these complexes in an established σ-receptor assay.
σ2-Receptor Binding Assay. Rat liver membranes were prepared from male Sprague-Dawley rat livers as previously described (Hellewell, S. B.; Bruce A.; Feinstein, G.; Orringer, J.; Williams, W.; Bowen, W. D. Rat Liver and Kidney Contain High Densities of σ1 and σ2 Receptors: Characterization by Ligand Binding and Photoaffinity Labeling. Eur. J. Pharmacol.-Mol. Pharmacol. Sect. 1994, 268, 9-18). […] Competition assays were performed with fifteen concentrations of the nonradioactive rhenium complexes ranging from 10^−10 to 10^−3 M and protein samples (0.15 mg membrane protein) in Tris-HCl (50 mM), pH 8.0, for 120 min at 25° C. in a 0.25-mL volume. All other manipulations and data analysis were performed as described vide supra for the σ1 receptor assay.

[3] = Determination of lipophilicity and pKa values by HPLC; format: physicochemical; settings: HPLC method
Procedure: The physicochemical parameters of the rhenium complexes, i.e. lipophilicity log P, log D(pH 7.4), and pKa (Table 2) were determined using HPLC methods (Braumann, T.; Grimme, L. H. Determination of Hydrophobic Parameters for Pyridazinone Herbicides by Liquid-Liquid Partition and Reversed-Phase High-Performance Liquid Chromatography. J. Chromatogr. 1981, 206, 7-15; Stytli, C.; Theobald, A. E. Determination of Ionization Constants of Radiopharmaceuticals in Mixed Solvents by HPLC. Appl. Radiat. Isot., 1987, 38, 701-708; Johannsen, B.; Scheunemann, M.; Spies, H.; Brust, P.; Wober, J.; Syhre, R.; Pietzsch, H.-J. Technetium(V) and Rhenium(V) Complexes for 5-HT2A Serotonin Receptor Binding: Structure-Affinity Considerations. Nucl. Med. Biol., 1996, 23, 429-438; and Johannsen, B.; Berger, R.; Brust, P.; Pietzsch, H.-J; Scheunemann, M.; Seifert, S.; Spies, H.; Syhre, R. Structural Modification of Receptor-Binding Technetium-99m Complexes in Order to Improve Brain Uptake. Eur. J. Nucl. Med. 1997, 24, 316-319). […] Since log D(pH 7.4) is a composite measure of log P and pKa, the log D(PH 7.4) of Re-Compound B (1.9) is also higher than that of Re-Compound A (1.1). […] With pKa values >9 for complexes Re-Compound C and Re-Compound D, the resulting low log D(PH 7.4) values of −0.5 (Re-Compound C) and 0.7 (Re-Compound D) are not surprising, since the complexes would exist in a protonated form at pH 7.4.
Determination of Lipophilicity and pKa Values. The lipophilicity and pKa values of all complexes were determined using HPLC methods described previously (Stylli, C.; Theobald, A. E. Determination of Ionization Constants of 4 Radiopharmaceuticals in Mixed Solvents by HPLC. Appl. Radiat. Isot., 1987, 38, 701-708; Johannsen, B.; Scheunemann, M.; Spies, H.; Brust, P.; Wober, J.; Syhre, R.; Pietzsch, H.-J. Technetium(V) and Rhenium(V) Complexes for 5-HT2A Serotonin Receptor Binding: Structure-Affinity Considerations. Nucl. Med. Biol., 1996, 23, 429-438; and Johannsen, B.; Berger, R.; Brust, P.; Pietzsch, H.-J.; Scheunemann, M.; Seifert, S.; Spies, H.; Syhre, R. Structural Modification of Receptor-Binding Technetium-99m Complexes in Order to Improve Brain Uptake. Eur. J. Nucl. Med. 1997, 24, 316-319). […] The mobile phase was acetonitrile:phosphate buffer (0.01 M), 3:1, v/v, with the aqueous buffer adjusted to the desired pH between 3 and 11. The capacity factor (k′) was calculated for each determination (Braumann, T.; Grimme, L. H. Determination of Hydrophobic Parameters for Pyridazinone Herbicides by Liquid-Liquid Partition and Reversed-Phase High-Performance Liquid Chromatography. J. Chromatogr. 1981, 206, 7-15; El Tayer, N.; van der Waterbeemd, H.; Testa, B. Lipophilicity Measurements of Protonated Basic Compounds by Reversed-Phase High-Performance Liquid Chromatography. II. Procedure for the Determination of a Lipophilic Index Measured by Reversed-Phase High Performance Liquid Chromatography. J. Chromatogr. 1985, 320, 305-312; and Minick, D. J.; Frenz, J. H.; Patrick, M. A.; Brent, D. A. A Comprehensive Method for Determining Hydrophobicity Constants by Reversed-Phase High-Performance Liquid Chromatography. J. Med. Chem., 1988, 31, 1923-1933) and the partition coefficient at a given pH (D or log D) were calculated from the equation: log D=a log k′+b where the parameters a and b are predetermined using standard amines. The fitted points of inflection from the sigmoidal DHPLC/pH profiles permit calculation of the pKHPLC(Stylli, C.; Theobald, A. E. Determination of Ionization Constants of Radiopharmaceuticals in Mixed Solvents by HPLC. Appl. Radiat. Isot., 1987, 38, 701-708). The aqueous ionization constants pKa were calculated from the pKHPLC values after correction with a predetermined correction factor obtained using standard amine compounds. Log P values of the neutral complexes were estimated from the respective upper plateau of the sigmoidal log D/pH curve in the alkaline range.

greater affinity toward the σ2-receptor subtype [2] [fold] | pKa [3] | log D(pH 7.4) ([3]; pH 7.4) | Structure (SMILES) | melanoma uptake [1]
 |  |  | CCN(CC)CCNC(=O)c1ccc(CC2[N]3CC(C)(C)[S][Tc]34(#[N])[S]C(C)(C)C[N]4C2(C)C)cc1 (centres unmarked) [Compound 1] | Compound 10.4% uptake % ID/g
 |  |  | CCN(CC)CCNC(=O)c1ccc(CCNC2=[SH][Tc]3(#[N])([S]2)[S]C(NCCc2ccc(C(=O)NCCN(CC)CC)cc2)=[SH]3)cc1 [Compound 4] | Compound 40.5% uptake % ID/g
100 | 9.2 | −0.5 | CCN(CC)CCCN1CC[S][Re]2(=[O])[S]CC[N]2C(=O)C1 (centres unmarked) [Re-Compound C, [ReOAADT]-C3—NEt2] | 
